Laboratory results as given in US10912771B1, “Methods for the administration of certain VMAT2 inhibitors” (Neurocrine Biosciences, Inc., priority 2017, dated 2021).
Entries after “also recorded” stand apart in the source; their conditions may differ. Where two headings read alike, the source gives them in different places.

Experiments:
[1] = Ptosis, in vivo surrogate measure of pharmacological effect
human VMAT1 transporter = target: T1, human VMAT1 transporter (Homo sapiens, UniProt P54219); assay: Uptake in cells expressing VMAT1; format: cell-based; details: TBZ, VBZ and metabolites at concentrations up to 10 μM
T1 construct: expressed in transfected cells
T1 sequence (P54219 1-525): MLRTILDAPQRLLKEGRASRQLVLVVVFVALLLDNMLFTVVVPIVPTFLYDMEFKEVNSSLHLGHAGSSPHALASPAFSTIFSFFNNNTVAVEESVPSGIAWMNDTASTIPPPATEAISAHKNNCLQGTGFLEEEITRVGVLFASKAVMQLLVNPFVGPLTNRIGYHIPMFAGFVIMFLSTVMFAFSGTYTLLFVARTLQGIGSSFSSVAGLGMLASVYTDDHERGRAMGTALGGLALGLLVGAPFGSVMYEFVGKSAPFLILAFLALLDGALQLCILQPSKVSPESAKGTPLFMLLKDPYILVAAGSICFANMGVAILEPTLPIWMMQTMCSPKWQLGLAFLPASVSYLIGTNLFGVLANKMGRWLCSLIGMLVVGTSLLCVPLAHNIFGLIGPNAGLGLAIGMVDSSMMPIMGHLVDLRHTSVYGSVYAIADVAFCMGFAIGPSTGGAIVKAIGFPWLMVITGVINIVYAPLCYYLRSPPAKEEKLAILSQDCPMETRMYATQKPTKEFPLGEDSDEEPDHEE

Dopamine D1 = Dopamine D1 (Homo sapiens, UniProt P21728); assay: Cerep screen, Dopamine D1; details: radioligand binding assays and broad panel screen
Sequence of Dopamine D1 (P21728 whole entry): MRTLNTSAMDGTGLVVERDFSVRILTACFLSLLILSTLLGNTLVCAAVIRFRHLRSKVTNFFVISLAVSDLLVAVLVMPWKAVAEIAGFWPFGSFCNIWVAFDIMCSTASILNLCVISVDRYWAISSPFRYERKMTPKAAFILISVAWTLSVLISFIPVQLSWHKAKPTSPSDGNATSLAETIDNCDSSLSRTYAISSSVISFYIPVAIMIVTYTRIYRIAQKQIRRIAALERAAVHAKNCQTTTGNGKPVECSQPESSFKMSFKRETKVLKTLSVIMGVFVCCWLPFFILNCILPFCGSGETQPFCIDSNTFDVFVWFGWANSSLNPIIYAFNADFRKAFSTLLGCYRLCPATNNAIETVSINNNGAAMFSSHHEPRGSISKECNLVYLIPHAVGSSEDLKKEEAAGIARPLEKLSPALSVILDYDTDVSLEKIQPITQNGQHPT

Dopamine D2(s) = Dopamine D2(s) (Homo sapiens, UniProt P14416); assay: Cerep screen, Dopamine D2(s); details: radioligand binding assays and broad panel screen
Sequence of Dopamine D2(s) (P14416 1-414 isoform P14416-2): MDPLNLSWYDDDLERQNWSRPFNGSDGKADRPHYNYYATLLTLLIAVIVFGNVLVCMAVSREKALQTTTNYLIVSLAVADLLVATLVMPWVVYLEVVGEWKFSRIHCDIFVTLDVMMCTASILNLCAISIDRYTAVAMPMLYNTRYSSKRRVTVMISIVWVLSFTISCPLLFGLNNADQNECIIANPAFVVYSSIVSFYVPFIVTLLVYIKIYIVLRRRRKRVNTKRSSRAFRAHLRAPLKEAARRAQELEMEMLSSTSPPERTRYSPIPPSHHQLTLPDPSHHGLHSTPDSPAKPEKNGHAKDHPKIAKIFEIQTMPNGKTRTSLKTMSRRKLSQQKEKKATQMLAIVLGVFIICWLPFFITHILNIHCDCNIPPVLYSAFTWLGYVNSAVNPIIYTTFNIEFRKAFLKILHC

Serotonin 5-HT7 = Serotonin 5-HT7 (Homo sapiens, UniProt P34969); assay: Cerep screen, Serotonin 5-HT7; details: 1 or 10 μM final concentration; n=2
Sequence of Serotonin 5-HT7 (P34969 whole entry): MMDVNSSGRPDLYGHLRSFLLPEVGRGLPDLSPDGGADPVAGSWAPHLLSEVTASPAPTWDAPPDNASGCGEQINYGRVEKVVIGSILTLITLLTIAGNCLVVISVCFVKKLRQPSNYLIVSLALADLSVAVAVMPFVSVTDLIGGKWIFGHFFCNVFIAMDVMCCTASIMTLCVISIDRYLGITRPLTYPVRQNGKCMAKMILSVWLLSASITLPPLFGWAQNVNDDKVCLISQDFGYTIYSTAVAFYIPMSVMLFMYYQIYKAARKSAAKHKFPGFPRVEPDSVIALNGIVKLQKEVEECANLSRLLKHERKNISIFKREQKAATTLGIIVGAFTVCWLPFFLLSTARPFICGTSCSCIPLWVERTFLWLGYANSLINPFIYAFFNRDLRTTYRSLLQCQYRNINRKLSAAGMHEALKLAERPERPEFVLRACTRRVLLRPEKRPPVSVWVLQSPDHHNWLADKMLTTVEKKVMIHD

[2] = Phase 1 open-label one-sequence crossover drug-interaction study: plasma pharmacokinetics of NBI-98854 and metabolites with and without rifampin; format: in vivo, human; details: for CL/F / AUC(0-inf) / Cmax / MRT / AUC(0-t) / t1/2 / Tlag: Mean (SD); for half-life: read-out: Mean t1/2 (converted); for AUC(0-t): plasma
Method: (§1) Subjects received a single dose of 80 mg valbenazine tosylate on Days 1 and 11 between 0800 and 1000 hours. In addition, subjects received 600 mg rifampin (300 mg×2 capsules) once daily on Days 5 (after collection of the 96-hour PK sample) through 14 between 0830 and 1030 hours. Subjects were required to fast overnight before receiving the study drugs (valbenazine tosylate and rifampin). Subjects were discharged from the study center on Day 15 (final study day or upon early termination) after all safety evaluations and study assessments had been completed.
Safety was assessed throughout the study.
NBI-98854 40 mg capsules were administered orally. The dose of NBI-98854 was based on ditosylate salt (dose expressed as free base). Subjects received a single dose of NBI-98854 80 mg (as two 40 mg capsules) twice during the study, on Days 1 and 11.
Rifampin 300 mg capsules were administered orally. Subjects received a single dose of rifampin 600 mg (as two 300 mg capsules) on Days 5 (after collection of the 96 hour NBI-98854 PK sample) through 14 between 0830 and 1030 hours.
The following plasma PK parameters were calculated only for NBI-98854: • Apparent systemic clearance after oral administration (CL/F) • Apparent volume of distribution during the terminal phase after oral administration (Vz/F)
The last significant figure was rounded up if the digit to the right of it was >5, and was rounded down if the digit to the right of it was […].
The last significant figure was rounded up if the digit to the right of it was ≥5, and was rounded down if the digit to the right of it was ≤4.
(§2) An analysis of variance (ANOVA) model was used to compare AUC0-∞ and Cmax for NBI-98854 administered with rifampin (“test”) versus AUC0-∞ and Cmax for NBI-98854 alone (“reference”). The PK parameters for metabolites of NBI-98854 and rifampin were also evaluated. Safety data were summarized using descriptive statistics.

[3] = Phase 1 drug-interaction study: safety, treatment-emergent adverse events; format: in vivo, human
Method: as §1, §2

[4] = system: more than 80 targets (GPCRs, cell-surface monoamine transporters, ion channels including HERG); assay: Cerep multi-target activity screen; details: receptors, monoamine transporters, and ion channels
Serotonin 5-HT1A = target: T2, Serotonin 5-HT1A (Homo sapiens, UniProt P08908); assay: Cerep screen, Serotonin 5-HT1A; details: 1 or 10 μM final concentration; n=2
T2 sequence (P08908 1-422): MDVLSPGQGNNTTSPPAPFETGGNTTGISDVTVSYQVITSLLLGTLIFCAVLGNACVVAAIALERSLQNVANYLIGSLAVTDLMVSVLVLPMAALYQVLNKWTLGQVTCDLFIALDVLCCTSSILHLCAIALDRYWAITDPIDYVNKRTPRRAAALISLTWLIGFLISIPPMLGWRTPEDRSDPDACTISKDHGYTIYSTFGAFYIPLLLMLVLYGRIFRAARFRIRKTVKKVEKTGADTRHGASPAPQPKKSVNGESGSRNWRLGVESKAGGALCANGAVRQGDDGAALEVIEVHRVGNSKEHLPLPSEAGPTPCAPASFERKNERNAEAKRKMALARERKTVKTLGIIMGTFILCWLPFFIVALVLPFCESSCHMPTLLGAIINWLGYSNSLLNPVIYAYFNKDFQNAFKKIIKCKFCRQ

VMAT2 = target: T3, VMAT2 (Homo sapiens, UniProt Q05940); assay: Inhibition of [3H]-DHTBZ binding to human platelets; details: for pKi mean (SEM): n=4
T3 construct: from tissue; host or cells: human platelets (homogenates)
T3 sequence (Q05940 whole entry): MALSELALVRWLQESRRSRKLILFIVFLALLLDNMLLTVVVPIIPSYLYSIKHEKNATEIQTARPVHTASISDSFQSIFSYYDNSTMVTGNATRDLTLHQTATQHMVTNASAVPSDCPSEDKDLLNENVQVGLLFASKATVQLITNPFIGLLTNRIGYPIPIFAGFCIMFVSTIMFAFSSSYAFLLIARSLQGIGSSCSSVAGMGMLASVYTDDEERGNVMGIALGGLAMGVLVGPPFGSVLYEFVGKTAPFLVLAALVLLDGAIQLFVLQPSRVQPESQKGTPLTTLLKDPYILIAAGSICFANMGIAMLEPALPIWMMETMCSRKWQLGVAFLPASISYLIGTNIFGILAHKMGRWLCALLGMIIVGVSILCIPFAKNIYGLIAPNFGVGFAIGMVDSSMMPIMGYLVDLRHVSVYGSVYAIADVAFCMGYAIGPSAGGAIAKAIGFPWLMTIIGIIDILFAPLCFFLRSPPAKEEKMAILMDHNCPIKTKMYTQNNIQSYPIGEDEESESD

CYP enzymes = details: human
[5] = both sexes, human, oral, 80 mg, plasma analyte, NBI-98854 alone
[6] = both sexes, human, oral, plasma NBI-98854, NBI-98854 80 mg + rifampin 600 mg, N = 11
[7] = both sexes, human, oral, plasma NBI-98854, NBI-98854 80 mg alone, N = 11
[8] = both sexes, human, oral, plasma analyte, NBI-98854 administered with rifampin
[9] = plasma analyte, NBI-98854 plus rifampin compared with NBI-98854 alone
[10] = Safety Analysis Set, healthy subjects, by treatment period
[11] = both sexes, human, oral, plasma metabolite NBI-136110, NBI-98854 80 mg + rifampin 600 mg, N = 11
[12] = both sexes, human, oral, plasma metabolite NBI-136110, NBI-98854 80 mg alone, N = 11
[13] = plasma metabolite NBI-136110, NBI-98854 80 mg + rifampin 600 mg, N = 11
[14] = plasma metabolite NBI-136110, NBI-98854 80 mg alone, N = 11

COc1cc2c(cc1OC)C1CC(=O)C(CC(C)C)CN1CC2 (stereo not shown) [TBZ, reference compound]
induction of ptosis [1]: induced ptosis in an equivalent manner
inhibition of uptake through VMAT1 (human VMAT1 transporter): no significant inhibitory activity; also recorded: no significant effect

COc1cc2c(cc1OC)[C@@H]1C[C@H](O)[C@@H](CC(C)C)CN1CC2 [S,S,S-DHTBZ]
interaction with D1 receptors (Dopamine D1): interact with D1 and D2 receptors
interaction with D2 receptors (Dopamine D2(s)): interact with D1 and D2 receptors

COc1cc2c(cc1OC)[C@@H]1C[C@@H](O)[C@@H](CC(C)C)CN1CC2 [R,S,S-DHTBZ]
interaction with D1 receptors (Dopamine D1): interact with D1 and D2 receptors
interaction with D2 receptors (Dopamine D2(s)): interact with D1 and D2 receptors

COc1cc2c(cc1OC)[C@H]1C[C@@H](OC(=O)[C@@H](N)C(C)C)[C@H](CC(C)C)CN1CC2 [NBI-98854, (S)-2-amino-3-methyl-butyric acid (2R, 3R,11bR)-3-isobutyl-9,10-dimethoxy-1,3,4,6,7,11b-hexahydro-2H-pyrido[2,1-a]isoquinolin-2-yl ester]
percent of control specific binding, Serotonin 5-HT7 (Serotonin 5-HT7): 4%
CL/F ([2]; NBI-98854 80 mg + rifampin 600 mg, N = 11): 50.3 (11.4) L/hr
CL/F ([2]; NBI-98854 80 mg alone, N = 11): 13.8 (2.77) L/hr
half-life [2, 5]: 16 h
AUC(0-inf) [2, 6]: 1700 ng·h/mL
Cmax [2, 6]: 542 ng/mL
MRT [2, 6]: 8.7 h
Tmax ([2]; both sexes, human, oral, plasma NBI-98854, NBI-98854 80 mg + rifampin 600 mg, N = 11, Median (mm, max), read-out: tmax): 0.75 h
AUC(0-inf) [2, 7]: 6020 ng·h/mL
Cmax [2, 7]: 795 ng/mL
MRT [2, 7]: 17 h
Tmax ([2]; both sexes, human, oral, plasma NBI-98854, NBI-98854 80 mg alone, N = 11, Median (mm, max), read-out: tmax): 0.75 h
half-life [2, 8]: 10 h
AUC(0-t) ([2]; both sexes, human, oral, 80 mg, plasma NBI-98854, NBI-98854 80 mg alone, N = 11, read-out: AUC0-24): 4480 ng·h/mL
AUC(0-t) ([2]; both sexes, human, oral, 80 mg, plasma NBI-98854, NBI-98854 80 mg alone, N = 11, read-out: AUC0-tlast): 5930 ng·h/mL
AUC(0-t) ([2]; both sexes, human, oral, plasma NBI-98854, NBI-98854 80 mg + rifampin 600 mg, N = 11, read-out: AUC0-24): 1510 ng·h/mL
AUC(0-t) ([2]; both sexes, human, oral, plasma NBI-98854, NBI-98854 80 mg + rifampin 600 mg, N = 11, read-out: AUC0-tlast): 1670 ng·h/mL
t1/2 ([2]; plasma NBI-98854, NBI-98854 80 mg + rifampin 600 mg, N = 11): 10 (2.1) hours
t1/2 ([2]; plasma NBI-98854, NBI-98854 80 mg alone, N = 11): 16 (2.3) hours
decrease in AUC0-∞ [2, 9]: ~70%
decrease in Cmax [2, 9]: ~30%
Tolerability ([3]; 80 mg in healthy subjects, alone or concomitantly with rifampin): well tolerated
Subjects who experienced a TEAE: Overall [3, 10]: 6 (50.0) n (%)
TEAE: Abdominal pain [3, 10]: 1 (8.3) n (%)
TEAE: Abdominal pain upper [3, 10]: 0 n (%)
TEAE: Arthropod bite [3, 10]: 1 (8.3) n (%)
TEAE: Chromaturia [3, 10]: 0 n (%)
TEAE: Headache [3, 10]: 3 (25.0) n (%)
TEAE: Hypoaesthesia [3, 10]: 0 n (%)
TEAE: Non-cardiac chest pain [3, 10]: 0 n (%)
TEAE: Paraesthesia [3, 10]: 0 n (%)
TEAE: Vessel puncture site haemorrhage [3, 10]: 1 (8.3) n (%)
induction of ptosis [1]: induced ptosis in an equivalent manner
inhibition of uptake through VMAT1 (human VMAT1 transporter; listed as VBZ): no significant inhibitory activity; also recorded: no significant effect
affinity for more than 80 binding sites [4]: little to no affinity
percent of control specific binding, Serotonin 5-HT1A (Serotonin 5-HT1A): 26%
Affinity Relative to R,R,R-DHTBZ (VMAT2): 45
pKi mean (SEM) (VMAT2): 6.82 (0.02)
enzymes involved in oxidative metabolism (CYP enzymes): CYP3A4/5 is the major enzyme

COc1cc2c(cc1OC)[C@H]1C[C@@H](OC(=O)[C@@H](N)C(C)(C)O)[C@H](CC(C)C)CN1CC2 [NBI-136110]
half-life [2, 5]: 27 h
Tmax ([2]; both sexes, human, oral, 80 mg, plasma analyte, NBI-98854 alone, read-out: Median tmax): 3 h
half-life [2, 8]: 12 h
Tmax ([2]; both sexes, human, oral, plasma analyte, NBI-98854 in combination with rifampin vs NBI-98854 alone, read-out: Median tmax shorter): 1.5 h
AUC(0-inf) [2, 11]: 663 ng·h/mL
Cmax [2, 11]: 81.5 ng/mL
MRT [2, 11]: 12 h
AUC(0-inf) [2, 12]: 2080 ng·h/mL
Cmax [2, 12]: 59.8 ng/mL
MRT [2, 12]: 39 h
AUC(0-t) ([2]; both sexes, human, oral, 80 mg, plasma metabolite NBI-136110, NBI-98854 80 mg alone, N = 11, read-out: AUC0-24): 963 ng·h/mL
AUC(0-t) ([2]; both sexes, human, oral, 80 mg, plasma metabolite NBI-136110, NBI-98854 80 mg alone, N = 11, read-out: AUC0-tlast): 1890 ng·h/mL
AUC(0-t) ([2]; both sexes, human, oral, plasma metabolite NBI-136110, NBI-98854 80 mg + rifampin 600 mg, N = 11, read-out: AUC0-24): 554 ng·h/mL
AUC(0-t) ([2]; both sexes, human, oral, plasma metabolite NBI-136110, NBI-98854 80 mg + rifampin 600 mg, N = 11, read-out: AUC0-tlast): 658 ng·h/mL
Mean t1/2 shorter ([2]; plasma analyte, NBI-98854 in combination with rifampin vs NBI-98854 alone): approximately 40%
decrease in AUC0-∞ [2, 9]: approximately 70%
Tlag [2, 13]: 0.16 (0.13) hr
t1/2 [2, 13]: 12 (3.0) hr
Tmax ([2]; plasma metabolite NBI-136110, NBI-98854 80 mg + rifampin 600 mg, N = 11, Median (min, max)): 1.5 (0.75, 2.1) hr
Tlag [2, 14]: 0.23 (0.14) hr
t1/2 [2, 14]: 27 (6.7) hr
Tmax ([2]; plasma metabolite NBI-136110, NBI-98854 80 mg alone, N = 11, Median (min, max)): 3.0 (2.0, 8.0) hr
inhibition of uptake through VMAT1 (human VMAT1 transporter): no significant inhibitory activity; also recorded: no significant effect
affinity for more than 80 binding sites [4]: little to no affinity
Affinity Relative to R,R,R-DHTBZ (VMAT2): 67
pKi mean (SEM) (VMAT2): 6.65 (0.04)

COc1cc2c(cc1OC)[C@H]1C[C@H](O)[C@H](CC(C)C)CN1CC2 [S,R,R-DHTBZ, reference compound]
percent of control specific binding, Serotonin 5-HT7 (Serotonin 5-HT7): 80%
percent of control specific binding, Serotonin 5-HT1A (Serotonin 5-HT1A): 69%
